Measured values published in patent US11807649B2, “Fused tetracyclic quinazoline derivatives as inhibitors of ErbB2” (EnLiven Therapeutics, Inc., priority 2021, dated 2023).
pIC50: −log10 of the molar value.

These molecules were tested on Ba/F3 ERBB2 YVMA (assay: Cell viability assay (CellTiter Glo), Ba/F3 cells engineered to express ERBB2 YVMA). Details: Mus musculus, BaF3, 72 h, Ba/F3 cells expressing human ERBB2 YVMA mutant; 72 hours; cell viability, CellTiter Glo; read-out: Ba/F3 ERBB2 YVMA, IC50.
Format: cell-based
Protocol: Cells were treated with compounds, and cell viability was measured as a metric of kinase inhibition.
BT-474, A431, MDA-MB-175VII, NCI-H1781, MCF7, and Ba/F3 cell lines were tested. The Ba/F3 cell line is IL-3-dependent mouse cell line derived from the C3H mouse strain. Ba/F3 cell lines were engineered to express human ERBB2 or EGFR kinases, rendering the cells IL-3 independent. The lines were generated via retroviral transduction utilizing a Moloney murine leukemia virus (MMLV) promoter, and constructs are stably integrated into the cell genome. The sequences of the ERBB2 and EGFR genes used were NCBI Reference Sequences NM 004448.3 and NM 005228.3, respectively.
BT-474, A431, MDA-MB-175VII, NCI-H1781 and MCF7 cells were grown in the appropriate growth medium as described in Table B2 below, and harvested at 50-80% confluence. BT-474, A431, MDA-MB-175VII, NCI-H1781 and MCF7 cells were counted and seeded at 2,000 or 1,500 cells per well in 384-well tissue culture plates (see Table B2). Similarly, Ba/F3 cell lines engineered to express EGFR, ERBB2, or ERBB2 mutants were grown, harvested, counted and seeded at 3000 cells per well in 96-well plates. A subset of wells contained media only (low control, “LC”).
Table B1 provides the growth media and number of cells seeded per well for the each cell line.
Compounds were dissolved in DMSO and serially diluted. Serially-diluted compound or a DMSO only control (high control, “HC”) was added to the plated cells in each well. Compounds were tested at concentrations of about 10 μM to 0.51 nM, using three-fold dilutions. The final proportion of DMSO never exceeded 0.1%.
Plates were placed in a 37° C., 5% CO2 incubator for 72 hours. Plates were then removed from the incubator and equilibrated for 15 minutes at room temperature. […] of CellTiter Glo reagent (Promega) was added to measure the relative level of metabolically active cells by quantifying intracellular ATP concentrations. Plates were incubated for 30 minutes at room temperature, and luminescence was measured. Percent viability was normalized to a vehicle control only using the following formula: % viability=100×(Lumsample−LumLC)/(LumHC−LumLC). Graphical curves were fitted using a nonlinear regression model with a sigmoidal dose response.

SMILES | pIC50
CC#CC(=O)N1CCN2C[C@H]1COc1cc3ncnc(Nc4ccc(Oc5ccn6ncnc6c5)c(C)c4)c3nc12 [Compound 18, 1-((10S)-4-((4-([1,2,4]triazolo[1,5-a]pyridin-7-yloxy)-3-methylphenyl)amino)-7,8,10,11-tetrahydro-9H-6,10-methanopyrimido[4′,5′:5,6]pyrido[3,2-b][1,4,7]oxadiazonin-9-yl)but-2-yn-1-one] | 7.67
Cc1cc(Nc2ncnc3cc4c(nc23)N2CCN(C(=O)/C=C/CN(C)C)[C@H](CO4)C2)ccc1Oc1ccn2ccnc2c1 [Compound 34, (E)-4-(dimethylamino)-1-((10S)-4-((4-(imidazo[1,2-a]pyridin-7-yloxy)-3-methylphenyl)amino)-7,8,10,11-tetrahydro-9H-6,10-methanopyrimido[4′,5′:5,6]pyrido[3,2-b][1,4,7]oxadiazonin-9-yl)but-2-en-1-one] | 8.14
Cc1cc(Nc2ncnc3cc4c(nc23)N2CCN(C(=O)/C=C/CN(C)C)[C@H](CO4)C2)c(F)cc1Oc1ccn2ncnc2c1 [Compound 24, (E)-1-((10S)-4-((4-([1,2,4]triazolo[1,5-a]pyridin-7-yloxy)-2-fluoro-5-methylphenyl)amino)-7,8,10,11-tetrahydro-9H-6,10-methanopyrimido[4′,5′:5,6]pyrido[3,2-b][1,4,7]oxadiazonin-9-yl)-4-(dimethylamino)but-2-en-1-one] | 8.19
CC#CC(=O)N1CCN2C[C@@H]1COc1cc3ncnc(Nc4ccc(Oc5ccn6ncnc6c5)c(C)c4)c3cc12 [Compound 17, 1-((10R)-4-((4-([1,2,4]triazolo[1,5-a]pyridin-7-yloxy)-3-methylphenyl)amino)-7,8,10,11-tetrahydro-9H-6,10-methano[1,4,7]oxadiazonino[3,2-g]quinazolin-9-yl)but-2-yn-1-one] | < 6.30
Cc1cc(Nc2ncnc3cc4c(nc23)N2CCN(C(=O)/C=C/[C@@H](C)N(C)C)[C@H](CO4)C2)c(F)cc1Oc1ccn2ncnc2c1 [Compound 50, (4R,E)-1-((10S)-4-((4-([1,2,4]triazolo[1,5-a]pyridin-7-yloxy)-2-fluoro-5-methylphenyl)amino)-7,8,10,11-tetrahydro-9H-6,10-methanopyrimido[4′,5′:5,6]pyrido[3,2-b][1,4,7]oxadiazonin-9-yl)-4-(dimethylamino)pent-2-en-1-one] | 7.20
Cc1cc(Nc2ncnc3cc4c(nc23)N2CCN(C(=O)/C=C/CN(C)C)[C@H](CO4)C2)ccc1Oc1cccnc1 [Compound 25, (E)-4-(dimethylamino)-1-((10S)-4-((3-methyl-4-(pyridin-3-yloxy)phenyl)amino)-7,8,10,11-tetrahydro-9H-6,10-methanopyrimido[4′,5′:5,6]pyrido[3,2-b][1,4,7]oxadiazonin-9-yl)but-2-en-1-one] | 8.69
Cc1cc(Nc2ncnc3cc4c(cc23)N2CCN(C(=O)/C=C/CN(C)C)[C@@H](CO4)C2)ccc1Oc1ccn2ncnc2c1 [Compound 8, (E)-1-((10R)-4-((4-([1,2,4]triazolo[1,5-a]pyridin-7-yloxy)-3-methylphenyl)amino)-7,8,10,11-tetrahydro-9H-6,10-methano[1,4,7]oxadiazonino[3,2-g]quinazolin-9-yl)-4-(dimethylamino)but-2-en-1-one] | < 6.30
C=C(F)C(=O)N1CCN2C[C@H]1COc1cc3ncnc(Nc4ccc(Oc5ccn6ncnc6c5)c(C)c4)c3nc12 [Compound 23, 1-((10S)-4-((4-([1,2,4]triazolo[1,5-a]pyridin-7-yloxy)-3-methylphenyl)amino)-7,8,10,11-tetrahydro-9H-6,10-methanopyrimido[4′,5′:5,6]pyrido[3,2-b][1,4,7]oxadiazonin-9-yl)-2-fluoroprop-2-en-1-one] | 6.65
Cc1cc(Nc2ncnc3ccc(NC4=NC(C)(C)CO4)cc23)ccc1Oc1ccn2ncnc2c1 [Tucatinib, tucatinib, reference compound] | 6.98
Cc1cc(Nc2ncnc3cc4c(nc23)N2CCN(C(=O)/C=C/CN(C)C)CC(CO4)C2)ccc1Oc1ccn2ncnc2c1 (stereo not shown) [Compound 57, (E)-1-(4-((4-([1,2,4]triazolo[1,5-a]pyridin-7-yloxy)-3-methylphenyl)amino)-7,8,11,12-tetrahydro-6,11-methanopyrimido[4′,5′:5,6]pyrido[3,2-b][1,4,7]oxadiazecin-9(10H)-yl)-4-(dimethylamino)but-2-en-1-one] | 6.76
Cc1cc(Nc2ncnc3cc4c(cc23)N2CCN(C(=O)/C=C/CN(C)C)[C@H](CO4)C2)ccc1Oc1ccn2ncnc2c1 [Compound 9, (E)-1-((10S)-4-((4-([1,2,4]triazolo[1,5-a]pyridin-7-yloxy)-3-methylphenyl)amino)-7,8,10,11-tetrahydro-9H-6,10-methano[1,4,7]oxadiazonino[3,2-g]quinazolin-9-yl)-4-(dimethylamino)but-2-en-1-one] | 7.07
Cc1cc(Nc2ncnc3cc4c(nc23)N2CCN(C(=O)/C=C/C3CN(C)C3)[C@H](CO4)C2)ccc1Oc1ccn2ncnc2c1 [Compound 45, (E)-1-((10S)-4-((4-([1,2,4]triazolo[1,5-a]pyridin-7-yloxy)-3-methylphenyl)amino)-7,8,10,11-tetrahydro-9H-6,10-methanopyrimido[4′,5′:5,6]pyrido[3,2-b][1,4,7]oxadiazonin-9-yl)-3-(1-methylazetidin-3-yl)prop-2-en-1-one] | 7.33

Now from value to molecule:

pIC50 | SMILES
6.96 | Cc1cc(Nc2ncnc3cc4c(nc23)N2CCN(C(=O)/C=C/CN(C)C)C(CCO4)C2)ccc1Oc1ccn2ncnc2c1 (stereo not shown) [Compound 52, (E)-1-(4-((4-([1,2,4]triazolo[1,5-a]pyridin-7-yloxy)-3-methylphenyl)amino)-7,8,11,12-tetrahydro-6,10-methanopyrimido[4′,5′:5,6]pyrido[3,2-b][1,4,7]oxadiazecin-9(10H)-yl)-4-(dimethylamino)but-2-en-1-one]
8.33 | CN(C)C/C=C/C(=O)N1CCN2C[C@H]1COc1cc3ncnc(Nc4cc(Cl)c(Oc5ccn6ncnc6c5)cc4F)c3nc12 [Compound 43, (E)-1-((10S)-4-((4-([1,2,4]triazolo[1,5-a]pyridin-7-yloxy)-5-chloro-2-fluorophenyl)amino)-7,8,10,11-tetrahydro-9H-6,10-methanopyrimido[4′,5′:5,6]pyrido[3,2-b][1,4,7]oxadiazonin-9-yl)-4-(dimethylamino)but-2-en-1-one]
8.06 | Cc1cc(Nc2ncnc3cc4c(nc23)N2CCN(C(=O)/C=C/[C@H]3CCCN3C)[C@H](CO4)C2)c(F)cc1Oc1ccn2ncnc2c1 [Compound 41, (E)-1-((10S)-4-((4-([1,2,4]triazolo[1,5-a]pyridin-7-yloxy)-2-fluoro-5-methylphenyl)amino)-7,8,10,11-tetrahydro-9H-6,10-methanopyrimido[4′,5′:5,6]pyrido[3,2-b][1,4,7]oxadiazonin-9-yl)-34-((R)-1-methylpyrrolidin-2-yl)prop-2-en-1-one]
8.28 | Cc1ccc(Oc2ccc(Nc3ncnc4cc5c(nc34)N3CCN(C(=O)/C=C/CN(C)C)[C@H](CO5)C3)cc2C)cn1 [Compound 21, (E)-4-(dimethylamino)-1-((10S)-4-((3-methyl-4-((6-methylpyridin-3-yl)oxy)phenyl)amino)-7,8,10,11-tetrahydro-9H-6,10-methanopyrimido[4′,5′:5,6]pyrido[3,2-b][1,4,7]oxadiazonin-9-yl)but-2-en-1-one]
8.26 | CN(C)C/C=C/C(=O)N1CCN2C[C@H]1COc1cc3ncnc(Nc4ccc(Oc5ccn6ncnc6c5)c(F)c4)c3nc12 [Compound 39, (E)-1-((10S)-4-((4-([1,2,4]triazolo[1,5-a]pyridin-7-yloxy)-3-fluorophenyl)amino)-7,8,10,11-tetrahydro-9H-6,10-methanopyrimido[4′,5′:5,6]pyrido[3,2-b][1,4,7]oxadiazonin-9-yl)-4-(dimethylamino)but-2-en-1-one]
8.47 | Cc1cc(Nc2ncnc3cc4c(nc23)N2CCN(C(=O)/C=C/CN(C)C)[C@H](CO4)C2)ccc1Oc1cncc(F)c1 [Compound 51]
8.15 | Cc1cc(Nc2ncnc3cc4c(nc23)N2CCN(C(=O)/C=C/CN(C)C)[C@H](CO4)C2)ccc1Oc1ccn2ncnc2c1 [Compound 10, (E)-1-((10S)-4-((4-([1,2,4]triazolo[1,5-a]pyridin-7-yloxy)-3-methylphenyl)amino)-7,8,10,11-tetrahydro-9H-6,10-methanopyrimido[4′,5′:5,6]pyrido[3,2-b][1,4,7]oxadiazonin-9-yl)-4-(dimethylamino)but-2-en-1-one]
